One block for each compound: values may come before it.
Tests used:
PDE2 = target: T1, PDE2 (Bos taurus, UniProt P14099); assay: PDE assay, PDE2 enzyme solution from bovine adrenal gland; type: biochemical, Japanese Black Cattle
T1 construct: tissue Tokyo Shibaura Zoki; host or cells: bovine adrenal gland, soluble fraction, ion-exchange fractions
T1 sequence (P14099 1-921): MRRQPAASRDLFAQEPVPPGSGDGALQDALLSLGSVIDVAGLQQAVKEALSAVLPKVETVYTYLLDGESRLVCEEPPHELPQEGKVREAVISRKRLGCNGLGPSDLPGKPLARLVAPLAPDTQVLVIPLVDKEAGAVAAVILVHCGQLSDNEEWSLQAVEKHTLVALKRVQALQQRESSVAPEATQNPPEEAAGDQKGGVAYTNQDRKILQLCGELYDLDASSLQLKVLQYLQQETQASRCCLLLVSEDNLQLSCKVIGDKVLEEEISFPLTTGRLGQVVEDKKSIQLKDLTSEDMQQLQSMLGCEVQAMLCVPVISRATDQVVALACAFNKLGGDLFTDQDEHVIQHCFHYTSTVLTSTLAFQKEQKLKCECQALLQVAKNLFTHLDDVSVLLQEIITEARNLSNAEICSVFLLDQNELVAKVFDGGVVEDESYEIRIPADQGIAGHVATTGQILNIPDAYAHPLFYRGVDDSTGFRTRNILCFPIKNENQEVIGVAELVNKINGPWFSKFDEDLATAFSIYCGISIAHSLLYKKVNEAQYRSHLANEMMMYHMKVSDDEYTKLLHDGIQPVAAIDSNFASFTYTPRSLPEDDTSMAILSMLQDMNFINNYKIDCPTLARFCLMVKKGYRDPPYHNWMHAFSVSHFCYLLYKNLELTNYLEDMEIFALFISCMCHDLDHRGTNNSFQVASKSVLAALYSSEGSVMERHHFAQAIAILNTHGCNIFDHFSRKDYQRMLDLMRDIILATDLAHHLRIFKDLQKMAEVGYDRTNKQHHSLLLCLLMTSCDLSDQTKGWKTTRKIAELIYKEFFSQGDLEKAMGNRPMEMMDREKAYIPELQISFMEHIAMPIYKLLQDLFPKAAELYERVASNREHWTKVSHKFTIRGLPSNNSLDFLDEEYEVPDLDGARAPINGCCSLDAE
Experimental: One adrenal gland of Japanese Black Cattle, purchased from Tokyo Shibaura Zoki, co., Ltd. was washed with 100 ml of ice-cold saline (0.9% sodium chloride) twice. Subsequently, the tissues were cut into about 1 gram, and it was frozen by liquid nitrogen. To about 2 g of this tissue sample was added 10 ml of an ice-cold homogenization buffer II (25 mM Tris-HCl, pH 7.5, 4 mM magnesium chloride, 0.5 mM EGTA, 2 mM dithiothreitol, 4 mM benzamidine, 0.1 mM phenylmethylsulfonyl fluoride), and the homogenate that was homogenized by Polytron homogenizer for 3 minutes was centrifuged at 8000 rpm, at 4° C. for 20 minutes, and the obtained supernatant was further centrifuged by an ultracentrifuge at 50000 rpm, at 4° C. for 60 minutes. The resultant supernatant was stored at 4° C.
(§1) This supernatant was applied to chromatography under the FPLC system, in the same manner as in Example 1 (1) above. […]
Subsequently, the eluted fractions were used as an enzyme solution for PDE assay, and cGMP-hydrolyzing activity was measured. Or, cAMP-hydrolyzing activity was measured for respective fractions, in the presence or absence of unlabeled cGMP. […]

PDE3 = target: T2, PDE3 (Canis lupus familiaris, UniProt A0A8I3NYE0); assay: PDE assay, PDE3 enzyme solution from dog ventricle; type: biochemical, mixed-breed dog
T2 sequence (A0A8I3NYE0 1-1135): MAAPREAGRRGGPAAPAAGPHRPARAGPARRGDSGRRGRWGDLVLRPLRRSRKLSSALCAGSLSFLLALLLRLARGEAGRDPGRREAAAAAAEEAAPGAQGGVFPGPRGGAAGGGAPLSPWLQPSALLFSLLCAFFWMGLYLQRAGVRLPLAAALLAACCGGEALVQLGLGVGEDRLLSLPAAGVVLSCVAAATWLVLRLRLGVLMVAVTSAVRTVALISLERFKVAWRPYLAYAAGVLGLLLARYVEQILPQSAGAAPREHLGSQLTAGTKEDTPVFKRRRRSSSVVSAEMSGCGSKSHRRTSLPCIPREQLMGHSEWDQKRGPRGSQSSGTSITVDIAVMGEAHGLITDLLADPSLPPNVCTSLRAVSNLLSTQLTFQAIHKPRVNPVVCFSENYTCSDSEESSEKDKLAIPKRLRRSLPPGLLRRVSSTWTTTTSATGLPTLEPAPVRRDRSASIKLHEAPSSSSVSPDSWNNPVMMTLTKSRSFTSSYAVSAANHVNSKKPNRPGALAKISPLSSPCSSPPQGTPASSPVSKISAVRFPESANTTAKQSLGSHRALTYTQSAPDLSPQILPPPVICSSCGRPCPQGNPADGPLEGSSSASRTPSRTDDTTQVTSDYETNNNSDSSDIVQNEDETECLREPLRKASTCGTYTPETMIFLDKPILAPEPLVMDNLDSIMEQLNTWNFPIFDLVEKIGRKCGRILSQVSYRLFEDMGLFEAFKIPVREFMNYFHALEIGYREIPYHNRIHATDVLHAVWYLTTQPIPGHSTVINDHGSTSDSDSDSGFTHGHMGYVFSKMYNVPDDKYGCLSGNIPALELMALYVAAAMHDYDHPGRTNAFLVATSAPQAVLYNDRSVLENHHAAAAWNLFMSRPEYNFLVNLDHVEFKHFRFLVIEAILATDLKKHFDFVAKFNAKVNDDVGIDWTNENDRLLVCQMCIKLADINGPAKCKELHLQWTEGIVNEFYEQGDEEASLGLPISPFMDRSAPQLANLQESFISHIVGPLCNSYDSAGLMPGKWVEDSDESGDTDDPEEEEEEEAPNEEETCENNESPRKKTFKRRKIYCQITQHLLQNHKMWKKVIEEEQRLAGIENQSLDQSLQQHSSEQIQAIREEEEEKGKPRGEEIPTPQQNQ
Experimental: Apex portion of ventricle of mixed-breed dog (Oriental Yeast) was excised, and washed with 500 ml of ice-cold saline three times. Subsequently, the tissues were cut into about 3 g, and it was frozen by liquid nitrogen, and stored at −80° C. To about 1 g of this tissue sample was added 10 ml of an ice-cold homogenization buffer II, and the resultant mixture was homogenized by Polytron homogenizer for 3 minutes. The homogenate was centrifuged at 8000 rpm, at 4° C. for 20 minutes, and the obtained supernatant was further centrifuged by an ultracentrifuge at 40000 rpm, at 4° C. for 60 minutes. The resultant supernatant was stored at 4° C.
as §1
Subsequently, the eluted fractions were used as an enzyme solution for PDE assay, and cGMP-hydrolyzing activity was measured. Further, cAMP-hydrolyzing activity was measured for respective fractions, in the presence or absence of unlabeled cGMP. […]

PDE4 = assay: PDE assay, PDE4 enzyme solution from dog lung; type: biochemical, mixed-breed dog
Experimental: These fractions were collected and glycerol was added thereto to become 50%, and the mixture was stored at −20° C.

PDE5 = target: T3, PDE5 (Canis lupus familiaris, UniProt O77746); assay: PDE assay, PDE5 enzyme solution from canine lung; type: biochemical
T3 construct: These were used as a PDE5 enzyme solution for PDE assay; tissue Oriental Yeast (animals); host or cells: canine lung, soluble fraction, DEAE Sepharose fractions
Experimental: In the same manner as in (1-4) above, the supernatant obtained from the homogenate of canine lung tissue was applied to chromatography under FLPC system, to collect eluted fractions of 2 ml each.
Subsequently, the eluted fractions were used as an enzyme solution for PDE assay, and cGMP-hydrolyzing activity was measured for respective fractions, in the presence or absence of E4021, the PDE5 specific inhibitor.
Further, for examining contamination of PDE1, which is adjacently eluted, cGMP-hydrolyzing PDE activity of the respective fractions were measured in the same assay buffer containing EGTA (final concentration of 1 mM) [or calcium chloride (final concentration of 2 mM) and calmodulin (40 units/ml)].
These fractions were collected and glycerol was added thereto to become 50%, and the mixture was stored at −20° C. These were used as a PDE5 enzyme solution for PDE assay.

PDE1 = assay: PDE assay, PDE1 enzyme solution from rat ventricle; type: biochemical, SD rat; conditions: E4021 100 nM
Experimental: Ventricle was excised from SD rat anesthetized with sodium pentobarbital (Nihon SLC, about 300 g), and washed with 100 ml of ice-cold saline 3 times. After the tissues were cut in approximately 1 g, it was frozen by liquid nitrogen, and stored at −80° C.
To about 5 g of this tissue sample was added 16 ml of an ice-cold homogenization buffer I, and the resultant mixture was homogenized by Polytron homogenizer for 3 minutes. The homogenate was centrifuged at 8000 rpm, at 4° C. for 20 minutes, and the obtained supernatant was further centrifuged by an ultracentrifuge at 50000 rpm, at 4° C. for 60 minutes. The resultant supernatant was stored at 4° C. […]
Subsequently, the eluted fractions were used as an enzyme solution for PDE assay. […] (final concentration of 1 mM) or calcium chloride (final concentration of 2 mM) and calmodulin (40 unit s/ml), and cGMP-hydrolyzing activity was measured.
For these PDE1 containing fractions, cGMP hydrolyzing activities were analyzed in the presence of E4021 (100 nM), PDE5 specific inhibitor, it was shown that the cGMP-hydrolyzing activities in these fractions were not inhibited by E4021. […]
Further, in the presence or absence of unlabeled cGMP, cAMP-PDE activities were measured for each of the fractions. […]
Still further, in the presence of rolipram (10 μm), the PDE4 specific inhibitor, cAMP hydrolyzing activities were measured for each of the fractions. […]

- PDE activity of PDE4 enzyme solution in the presence of inhibitor (PDE4): inhibited
Compound: COc1ccc(C2CNC(=O)C2)cc1OC1CCCC1 (centres unmarked) [rolipram, reference compound]

- PDE activity of PDE5 enzyme solution in the presence of inhibitor (PDE5): inhibited
Compound: CCCc1nn(C)c2c(=O)[nH]c(-c3cc(S(=O)(=O)N4CCN(C)CC4)ccc3OCC)nc12 [sildenafil, reference compound]

Second part, the compound before the results:

Compound: CCCCCC[C@@H]([C@@H](C)O)n1cnc2c(N)ncnc21 (racemic) [EHNA, erythro-9-(2-hydroxy-3-nonyl)adenine, reference compound]
- PDE activity of PDE2 enzyme solution in the presence of inhibitor (PDE2): inhibited

Compound: Cc1[nH]c(=O)c(C#N)cc1-c1ccncc1 [milrinone]
- PDE activity of PDE3 enzyme solution in the presence of inhibitor (PDE3): inhibited

Compound: O=C(O)C1CCN(c2nc(NCc3ccc4c(c3)OCO4)c3cc(Cl)ccc3n2)CC1 [Compound E4021, reference compound]
- cGMP-hydrolyzing activity of PDE1 containing fractions in the presence of inhibitor (PDE1): not inhibited

Source: patent US8338420B1, “Treatment of Parkinson's disease and enhancement of dopamine signal using PDE 10 inhibitor” (Mitsubishi Tanabe Pharma Corporation, priority 2002, dated 2012)
